Assay results from ChEMBL document CHEMBL1201862, “PubChem BioAssay data set” (2004).
Calls of active or inactive are those of the source.

Experiments:
Cytochrome P450 2C19 = Cytochrome P450 2C19 (Homo sapiens, UniProt P33261); assay: Cytochrome panel assay with activity outcomes. Panel member name: p450-cyp2c19 Compounds with AC50 equal or less than 10 uM are considered active; assay type: functional
Cytochrome P450 2D6 = Cytochrome P450 2D6 (Homo sapiens, UniProt P10635);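 further: CYP2D6 member of a cytochrome P450 panel assay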
Cytochrome P450 2D6, sequence (P10635 whole entry): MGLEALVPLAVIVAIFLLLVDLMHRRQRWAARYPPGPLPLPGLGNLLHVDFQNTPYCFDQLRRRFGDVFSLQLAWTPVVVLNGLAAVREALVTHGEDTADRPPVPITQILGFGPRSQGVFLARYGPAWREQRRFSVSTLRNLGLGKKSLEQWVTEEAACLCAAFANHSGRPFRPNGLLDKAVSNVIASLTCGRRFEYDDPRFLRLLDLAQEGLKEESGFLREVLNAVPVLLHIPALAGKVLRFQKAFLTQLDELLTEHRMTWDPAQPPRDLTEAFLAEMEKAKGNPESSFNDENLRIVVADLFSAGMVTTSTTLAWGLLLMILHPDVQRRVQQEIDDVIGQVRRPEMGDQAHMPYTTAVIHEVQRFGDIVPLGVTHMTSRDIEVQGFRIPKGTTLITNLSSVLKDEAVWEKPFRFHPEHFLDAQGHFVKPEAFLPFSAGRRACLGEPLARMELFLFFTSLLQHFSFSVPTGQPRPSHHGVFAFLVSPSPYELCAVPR

Beta-galactosidase = Beta-galactosidase (Escherichia coli, UniProt Q8VNN2); assay: beta-galactosidase enzyme inhibitors and activators, dose response, artefact control for CCR6 antagonist project, biochemical, E. coli enzyme, set 3 (AID 504712); assay type: functional
Beta-galactosidase, sequence (Q8VNN2 whole entry): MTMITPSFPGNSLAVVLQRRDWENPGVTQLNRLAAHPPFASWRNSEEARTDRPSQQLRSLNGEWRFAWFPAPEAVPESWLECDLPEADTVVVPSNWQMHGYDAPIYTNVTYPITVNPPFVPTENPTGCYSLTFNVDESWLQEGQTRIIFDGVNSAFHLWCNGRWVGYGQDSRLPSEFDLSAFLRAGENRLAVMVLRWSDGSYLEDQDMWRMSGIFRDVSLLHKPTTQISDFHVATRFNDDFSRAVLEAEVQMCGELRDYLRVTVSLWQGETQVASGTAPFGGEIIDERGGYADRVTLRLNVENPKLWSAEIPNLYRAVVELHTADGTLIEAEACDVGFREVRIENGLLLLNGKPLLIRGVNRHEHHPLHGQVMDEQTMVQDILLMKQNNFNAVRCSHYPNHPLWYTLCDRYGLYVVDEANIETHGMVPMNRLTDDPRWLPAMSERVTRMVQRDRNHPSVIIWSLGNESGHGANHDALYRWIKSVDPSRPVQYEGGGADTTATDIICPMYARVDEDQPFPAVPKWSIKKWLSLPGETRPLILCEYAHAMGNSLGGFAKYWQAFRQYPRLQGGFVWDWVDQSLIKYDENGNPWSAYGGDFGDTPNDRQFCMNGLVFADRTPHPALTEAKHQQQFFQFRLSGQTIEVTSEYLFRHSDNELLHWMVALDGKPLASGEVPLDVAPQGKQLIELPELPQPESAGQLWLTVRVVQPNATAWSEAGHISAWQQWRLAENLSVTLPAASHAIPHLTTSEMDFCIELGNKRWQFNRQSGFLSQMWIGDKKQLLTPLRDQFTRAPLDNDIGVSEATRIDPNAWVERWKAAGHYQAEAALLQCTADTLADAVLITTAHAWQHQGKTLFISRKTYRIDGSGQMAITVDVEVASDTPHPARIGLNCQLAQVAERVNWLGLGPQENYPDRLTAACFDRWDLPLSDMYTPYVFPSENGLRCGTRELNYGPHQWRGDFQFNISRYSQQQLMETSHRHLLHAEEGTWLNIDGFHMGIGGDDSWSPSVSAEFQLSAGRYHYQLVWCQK

[1] = system: Streptococcus sp. 'group A'; assay: growth inhibition of control SK(-) GAS strain, dose response, counter-screen for streptokinase expression inhibitor project, luminescence, kanamycin, BacTiterGlo, confirmation (AID 1900); assay type: functional, organism-based
Streptokinase A = target: T1, Streptokinase A (Streptococcus pyogenes serotype M1, UniProt P10520); assay: S. pyogenes streptokinase expression inhibitors, potency, dose response, plasminogen activation absorbance, OD405 (AID 1914); assay type: functional, Streptococcus pyogenes M1 GAS;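 further: secreted streptokinase activity via plasminogen activation per viability signal from cell pellet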
T1 sequence (P10520 whole entry): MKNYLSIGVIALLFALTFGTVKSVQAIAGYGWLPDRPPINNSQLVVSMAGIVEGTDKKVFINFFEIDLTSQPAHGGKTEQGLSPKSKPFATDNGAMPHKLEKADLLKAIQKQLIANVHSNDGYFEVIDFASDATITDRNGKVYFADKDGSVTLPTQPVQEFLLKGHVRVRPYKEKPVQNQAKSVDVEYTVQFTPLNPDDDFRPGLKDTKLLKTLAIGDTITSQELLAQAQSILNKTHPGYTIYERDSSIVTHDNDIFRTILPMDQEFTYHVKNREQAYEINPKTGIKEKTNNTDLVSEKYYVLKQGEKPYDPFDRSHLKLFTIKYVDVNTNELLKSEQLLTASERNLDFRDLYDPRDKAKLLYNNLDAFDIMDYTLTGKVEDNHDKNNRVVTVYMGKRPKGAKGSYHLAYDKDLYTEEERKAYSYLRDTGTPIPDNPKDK

Streptococcus = assay: Group A Streptococcus viability loss, dose response, counter-screen for streptokinase expression inhibitor project, luminescence, BacTiterGlo (AID 1915); assay type: functional, organism-based;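 further: potency for reduction of bacterial viability or growth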
[2] = target: Voltage-dependent T-type calcium channel subunit alpha-1H (Homo sapiens, UniProt O95180); assay type: functional;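 further: channel activity triggered by adding a high calcium stimulation buffer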
Voltage-dependent T-type calcium channel subunit alpha-1H, sequence (O95180 whole entry): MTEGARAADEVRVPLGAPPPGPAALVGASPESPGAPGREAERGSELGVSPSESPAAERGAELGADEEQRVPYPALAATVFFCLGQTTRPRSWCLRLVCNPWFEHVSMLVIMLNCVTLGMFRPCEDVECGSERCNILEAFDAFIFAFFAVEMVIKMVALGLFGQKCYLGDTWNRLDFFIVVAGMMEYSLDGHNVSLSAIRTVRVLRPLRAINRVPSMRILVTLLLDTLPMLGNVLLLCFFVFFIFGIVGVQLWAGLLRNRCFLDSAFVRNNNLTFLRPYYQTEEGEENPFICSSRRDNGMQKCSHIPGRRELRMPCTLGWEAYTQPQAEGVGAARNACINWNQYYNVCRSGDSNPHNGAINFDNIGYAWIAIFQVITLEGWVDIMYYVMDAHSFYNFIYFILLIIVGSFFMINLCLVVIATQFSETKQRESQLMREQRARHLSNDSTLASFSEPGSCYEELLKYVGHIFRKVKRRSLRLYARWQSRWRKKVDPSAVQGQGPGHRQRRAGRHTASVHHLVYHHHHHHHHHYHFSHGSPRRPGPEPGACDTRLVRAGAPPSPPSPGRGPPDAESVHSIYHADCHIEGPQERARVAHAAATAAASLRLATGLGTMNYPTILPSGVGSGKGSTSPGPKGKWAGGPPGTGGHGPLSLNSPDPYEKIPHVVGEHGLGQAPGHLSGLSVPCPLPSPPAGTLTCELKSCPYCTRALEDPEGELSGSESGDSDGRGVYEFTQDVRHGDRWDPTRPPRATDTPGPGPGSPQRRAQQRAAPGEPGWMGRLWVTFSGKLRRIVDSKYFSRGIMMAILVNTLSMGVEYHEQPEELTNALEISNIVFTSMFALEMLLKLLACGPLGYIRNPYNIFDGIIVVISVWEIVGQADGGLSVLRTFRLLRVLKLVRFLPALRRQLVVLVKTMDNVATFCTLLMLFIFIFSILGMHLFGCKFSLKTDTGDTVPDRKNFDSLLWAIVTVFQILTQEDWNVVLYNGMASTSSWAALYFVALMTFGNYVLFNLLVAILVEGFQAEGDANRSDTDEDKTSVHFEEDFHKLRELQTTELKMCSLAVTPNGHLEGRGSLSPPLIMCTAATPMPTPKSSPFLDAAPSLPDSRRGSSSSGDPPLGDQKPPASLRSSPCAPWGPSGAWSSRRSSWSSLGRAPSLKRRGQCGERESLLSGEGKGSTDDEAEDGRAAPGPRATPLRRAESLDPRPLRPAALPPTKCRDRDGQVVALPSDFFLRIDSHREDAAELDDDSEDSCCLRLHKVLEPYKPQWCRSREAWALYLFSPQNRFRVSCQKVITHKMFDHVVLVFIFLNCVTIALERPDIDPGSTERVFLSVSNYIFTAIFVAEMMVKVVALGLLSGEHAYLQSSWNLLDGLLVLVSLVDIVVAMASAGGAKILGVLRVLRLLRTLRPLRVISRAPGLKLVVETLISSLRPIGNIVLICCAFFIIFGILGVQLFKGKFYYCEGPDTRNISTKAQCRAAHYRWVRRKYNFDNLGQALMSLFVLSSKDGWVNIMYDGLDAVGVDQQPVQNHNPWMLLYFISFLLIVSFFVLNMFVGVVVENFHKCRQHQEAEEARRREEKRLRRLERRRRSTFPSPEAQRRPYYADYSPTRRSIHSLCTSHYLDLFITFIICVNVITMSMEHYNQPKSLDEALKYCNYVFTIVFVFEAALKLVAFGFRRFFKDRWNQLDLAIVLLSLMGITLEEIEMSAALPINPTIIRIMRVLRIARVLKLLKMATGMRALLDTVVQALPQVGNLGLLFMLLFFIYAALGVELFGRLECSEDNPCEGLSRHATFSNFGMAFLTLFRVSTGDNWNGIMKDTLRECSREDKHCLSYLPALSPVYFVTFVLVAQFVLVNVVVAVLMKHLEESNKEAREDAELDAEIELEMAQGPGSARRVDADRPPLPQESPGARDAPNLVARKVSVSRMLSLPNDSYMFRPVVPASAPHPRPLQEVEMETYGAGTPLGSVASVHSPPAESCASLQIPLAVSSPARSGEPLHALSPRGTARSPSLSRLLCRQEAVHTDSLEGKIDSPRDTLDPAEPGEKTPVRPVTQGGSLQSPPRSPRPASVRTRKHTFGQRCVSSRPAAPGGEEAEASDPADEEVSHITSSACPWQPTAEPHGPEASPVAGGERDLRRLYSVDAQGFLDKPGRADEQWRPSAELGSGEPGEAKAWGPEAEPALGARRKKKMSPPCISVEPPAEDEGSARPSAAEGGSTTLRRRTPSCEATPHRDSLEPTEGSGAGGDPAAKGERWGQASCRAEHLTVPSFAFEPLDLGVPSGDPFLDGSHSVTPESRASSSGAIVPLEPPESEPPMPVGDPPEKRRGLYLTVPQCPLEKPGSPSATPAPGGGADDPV

Vero [3] = assay: cells; assay type: functional, cell-based; settings: Chlorocebus sabaeus
Vero [4] = assay: cells; assay type: functional; settings: Chlorocebus sabaeus
[5] = target: T2, Carboxy-terminal domain RNA polymerase II polypeptide A small phosphatase 1 (Homo sapiens, UniProt Q9GZU7); assay: inhibitors of CTDSP1, concentration-response testing, biochemical assay, absorbance-based, actives from ultra-high-throughput screening (AID 540297); assay type: functional
T2 sequence (Q9GZU7 whole entry): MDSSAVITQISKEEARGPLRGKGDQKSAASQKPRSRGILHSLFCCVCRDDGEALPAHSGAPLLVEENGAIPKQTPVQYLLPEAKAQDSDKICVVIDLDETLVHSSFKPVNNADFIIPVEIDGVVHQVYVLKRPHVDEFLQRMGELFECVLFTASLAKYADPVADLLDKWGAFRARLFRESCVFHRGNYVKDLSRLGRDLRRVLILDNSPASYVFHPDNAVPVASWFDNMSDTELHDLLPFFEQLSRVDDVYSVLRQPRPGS

[6] = target: T3, Low molecular weight phosphotyrosine protein phosphatase (Homo sapiens, UniProt P24666); assay type: functional; settings: read-out: IC50_Mean;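 further: Dose-response confirmation assay measuring inhibition of LMPTP enzyme activity by fluorescence intensity read-out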
T3 sequence (P24666 whole entry): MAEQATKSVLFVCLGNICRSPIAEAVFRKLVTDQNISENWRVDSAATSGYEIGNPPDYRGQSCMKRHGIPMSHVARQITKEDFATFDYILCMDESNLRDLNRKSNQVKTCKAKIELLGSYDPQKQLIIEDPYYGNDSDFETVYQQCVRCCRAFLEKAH

Cytochrome P450 1A2 = target: T4, Cytochrome P450 1A2 (Homo sapiens, UniProt P05177);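 further: PubChem cytochrome P450 panel assay, CYP1A2 panel member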
T4 sequence (P05177 whole entry): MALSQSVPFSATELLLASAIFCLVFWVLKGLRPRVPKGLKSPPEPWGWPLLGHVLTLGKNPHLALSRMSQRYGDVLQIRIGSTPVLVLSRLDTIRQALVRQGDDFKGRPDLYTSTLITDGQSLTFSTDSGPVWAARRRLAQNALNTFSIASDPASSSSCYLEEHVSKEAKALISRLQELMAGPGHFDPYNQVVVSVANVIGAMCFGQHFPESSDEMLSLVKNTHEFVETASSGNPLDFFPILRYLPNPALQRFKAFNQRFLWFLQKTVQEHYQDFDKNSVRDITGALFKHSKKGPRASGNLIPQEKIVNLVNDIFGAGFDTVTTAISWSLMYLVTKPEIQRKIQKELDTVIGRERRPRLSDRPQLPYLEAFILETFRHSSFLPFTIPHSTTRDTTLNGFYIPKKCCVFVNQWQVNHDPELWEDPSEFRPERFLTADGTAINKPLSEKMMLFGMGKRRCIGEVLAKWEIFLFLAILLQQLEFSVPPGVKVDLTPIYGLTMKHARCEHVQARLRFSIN

Melanocortin receptor 4 = Melanocortin receptor 4 (Homo sapiens, UniProt P32245); assay type: functional, cell-based;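 further: Cell-based assay with luminescence read-out, confirmatory dose-response testing for agonist activity of biased ligands at MC4R; human U2OS cells with tagged receptor and beta-arrestin; potency of agonists that increase receptor coupling to beta-arrestin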
Melanocortin receptor 4, sequence (P32245 whole entry): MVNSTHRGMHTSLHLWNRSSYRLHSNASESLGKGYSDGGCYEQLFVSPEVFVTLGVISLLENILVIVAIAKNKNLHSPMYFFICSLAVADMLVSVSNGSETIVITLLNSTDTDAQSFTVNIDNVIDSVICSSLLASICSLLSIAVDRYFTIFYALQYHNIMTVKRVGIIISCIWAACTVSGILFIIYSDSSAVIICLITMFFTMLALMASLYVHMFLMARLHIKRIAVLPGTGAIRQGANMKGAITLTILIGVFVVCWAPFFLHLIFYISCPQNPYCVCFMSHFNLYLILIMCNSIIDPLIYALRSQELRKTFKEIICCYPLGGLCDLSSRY

H9c2 = assay: cells; assay type: functional, cell-based; settings: Rattus norvegicus, H9c2, Myocardium;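 further: confirmatory concentration-response retest of ultra-high-throughput screening hits for modulation of myocardial damage; cell death induced by hydrogen peroxide oxidative stress; compound pretreatment for 60 min then peroxide exposure for 2 h; potency is for protecting the cells against peroxide damage rather than for killing them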
[7] = inhibitors of intracellular T. cruzi replication, confirmation, NIH3T3 host cells, beta-gal luminescence (AID 2044); assay type: functional, cell-based;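 further: intracellular parasites grown in NIH/3T3 mouse fibroblasts as host cells; luminescent beta-galactosidase reporter signal from transgenic T. cruzi replicating inside host cells; inhibitors lower the luminescence signal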
[8] = cytotoxicity toward NIH3T3 fibroblasts, dose response, counter-screen, cell-based, ATP luminescence, mouse fibroblasts (AID 2010); assay type: functional;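 further: cells exposed to compound for about 90 hours before reading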
[9] = target: T5, Ubiquitin-conjugating enzyme E2 N (Homo sapiens, UniProt P61088); assay type: functional;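 further: Dose-response confirmation in a TR-FRET assay detecting UBC13-driven polyubiquitin chain formation, inhibition measured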
T5 sequence (P61088 whole entry): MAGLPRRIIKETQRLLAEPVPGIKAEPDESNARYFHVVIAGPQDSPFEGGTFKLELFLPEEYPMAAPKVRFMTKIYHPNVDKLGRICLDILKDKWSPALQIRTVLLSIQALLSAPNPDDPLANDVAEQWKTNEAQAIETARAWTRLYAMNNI

[10] = Luminescence Cell-Based Dose Retest to Confirm Inhibitors of Cancer Stem Cells. [Related pubchem assays (depositor defined):AID2717, AID2721]; assay type: functional; settings: Homo sapiens
[11] = target: T6, Heat shock factor protein 1 (Mus musculus, UniProt P38532); assay: HSF1 potentiators in luciferase reporter cells, confirmation, cell-based, NIH3T3, luminescence, dose retest (AID 435004); assay type: functional;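 further: stress induced by proteasome inhibitor MG132 added 30 min after compound; luciferase reporter driven by HSF1 response element in NIH3T3 cells; actives raise luminescence as potentiators of the MG132 stress response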
T6 sequence (P38532 whole entry): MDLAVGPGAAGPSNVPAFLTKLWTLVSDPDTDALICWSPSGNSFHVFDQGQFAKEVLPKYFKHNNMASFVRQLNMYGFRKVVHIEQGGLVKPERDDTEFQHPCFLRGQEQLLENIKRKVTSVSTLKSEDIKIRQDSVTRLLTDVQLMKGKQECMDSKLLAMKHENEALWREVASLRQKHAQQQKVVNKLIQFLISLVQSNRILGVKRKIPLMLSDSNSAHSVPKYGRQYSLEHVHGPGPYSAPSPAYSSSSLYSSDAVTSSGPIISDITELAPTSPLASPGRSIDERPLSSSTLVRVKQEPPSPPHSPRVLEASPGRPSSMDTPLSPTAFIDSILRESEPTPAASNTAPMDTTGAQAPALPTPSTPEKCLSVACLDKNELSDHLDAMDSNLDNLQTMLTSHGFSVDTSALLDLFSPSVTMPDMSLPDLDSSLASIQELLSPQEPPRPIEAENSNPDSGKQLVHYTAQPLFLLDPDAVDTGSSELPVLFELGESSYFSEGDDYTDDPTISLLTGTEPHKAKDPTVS

[12] = cytotoxicity in HEK-293T cells, dose response, cytotoxicity control for TCR NF-kB inhibitor project, luminescence, T-cell screen hits (AID 489026); assay type: functional, cell-based;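 further: cells exposed to compound about 14 hours before the viability readout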
Paired box protein Pax-8 = Paired box protein Pax-8 (Homo sapiens, UniProt Q06710); assay: inhibitors of PAX8-driven TPO luciferase reporter, dose response, RMG-I cells, cherry-pick (AID 687027); assay type: functional, cell-based;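 further: luciferase reporter driven by Pax8 target thyroperoxidase promoter measured by SteadyGlo luminescence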
[13] = HEp-2 cell cytotoxicity, dose response, cytotoxicity control for RSV inhibitor project, HTS (AID 2410); assay type: functional; settings: human respiratory syncytial virus
[14] = target: T7, Rac GTPase-activating protein 1 (Homo sapiens, UniProt Q9H0H5); assay: MgcRacGAP GTPase-activating activity inhibitors, confirmation, biochemical, ADP Hunter fluorescence, primary and confirmatory (AID 624330); assay type: functional
T7 sequence (Q9H0H5 whole entry): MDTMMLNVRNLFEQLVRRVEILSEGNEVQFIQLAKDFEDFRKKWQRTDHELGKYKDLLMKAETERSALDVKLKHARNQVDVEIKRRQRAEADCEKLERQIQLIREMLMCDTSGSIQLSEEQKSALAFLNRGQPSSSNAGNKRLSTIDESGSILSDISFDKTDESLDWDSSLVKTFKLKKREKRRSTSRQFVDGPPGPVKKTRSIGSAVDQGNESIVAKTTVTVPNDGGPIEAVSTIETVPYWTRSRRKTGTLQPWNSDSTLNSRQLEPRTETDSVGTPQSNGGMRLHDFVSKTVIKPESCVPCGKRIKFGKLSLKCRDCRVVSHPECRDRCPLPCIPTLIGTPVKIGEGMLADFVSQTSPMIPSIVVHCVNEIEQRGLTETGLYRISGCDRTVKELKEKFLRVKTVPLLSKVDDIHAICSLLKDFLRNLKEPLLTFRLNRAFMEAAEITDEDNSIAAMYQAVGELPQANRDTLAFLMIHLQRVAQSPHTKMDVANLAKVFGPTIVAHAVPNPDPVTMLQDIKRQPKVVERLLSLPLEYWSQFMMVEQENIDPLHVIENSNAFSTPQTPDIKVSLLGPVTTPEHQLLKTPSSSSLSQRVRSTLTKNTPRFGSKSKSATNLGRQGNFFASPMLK

Cytochrome P450 3A4 = Cytochrome P450 3A4 (Homo sapiens, UniProt P08684); settings: Potency;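 further: confirmatory qHTS run detecting inhibitors and substrates of CYP3A4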

Cytochrome P450 2C19, sequence (P33261 whole entry): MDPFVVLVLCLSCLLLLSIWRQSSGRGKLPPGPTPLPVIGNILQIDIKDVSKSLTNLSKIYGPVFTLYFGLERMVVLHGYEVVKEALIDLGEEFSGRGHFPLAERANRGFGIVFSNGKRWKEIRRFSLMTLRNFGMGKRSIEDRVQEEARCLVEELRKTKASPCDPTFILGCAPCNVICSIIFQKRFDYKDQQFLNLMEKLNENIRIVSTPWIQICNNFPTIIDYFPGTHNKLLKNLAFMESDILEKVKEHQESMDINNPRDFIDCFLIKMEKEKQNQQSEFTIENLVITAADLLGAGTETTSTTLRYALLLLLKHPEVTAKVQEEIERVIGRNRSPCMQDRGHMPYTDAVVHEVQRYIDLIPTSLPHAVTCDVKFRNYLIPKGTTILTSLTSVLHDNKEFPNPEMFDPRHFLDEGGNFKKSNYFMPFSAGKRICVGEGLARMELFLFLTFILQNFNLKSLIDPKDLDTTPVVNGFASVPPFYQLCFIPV

SMILES: Cc1c(Cl)c(S(N)(=O)=O)cc(S(N)(=O)=O)c1NC(=O)c1ccc(Cl)cc1
- AC50 (Cytochrome P450 2C19): inconclusive
- AC50 (Cytochrome P450 2D6): inconclusive

SMILES: CC(=O)N1c2ccc(S(=O)(=O)N3CCCC(C(=O)Nc4cccc(Cl)c4)C3)cc2CC1C (stereo not given)
- IC50 (Beta-galactosidase): > 66.6 µM (inactive)

SMILES: Cc1ccc2nc(N3C(=O)CNC3=S)sc2c1
- EC50 [1]: 4.9 µM (active)
- EC50 (Streptokinase A): > 150 µM (not active)
- EC50 (Streptococcus): 11.2 µM (active)
- IC50 (Beta-galactosidase): > 66.6 µM (inactive)

SMILES: O=S(=O)(NCCc1csc(-c2ccccc2)n1)c1ccc2c(c1)OCCO2
- EC50 [2]: 23.2 µM (active)

SMILES: COc1ccc(/C=C2\SC(=S)N(CCC(=O)NCCc3ccc(O)cc3)C2=O)cc1
- IC50 (Vero [3]): > 25 µM (active)
- CC50 (Vero [4]): > 25 µM (active)

SMILES: COC(=O)COc1ccc2oc(=O)cc(-c3cc4cccc(OC)c4o3)c2c1
- IC50 [5]: 9.43 µM (active)
- IC50 [6]: 19.1 µM (active)

SMILES: Fc1ccc(Cn2nnnc2C(c2ccc(Cl)cc2)N2CCSCC2)cc1 (stereo not given)
- EC50 [2]: 9.78 µM (active)

SMILES: COc1ccc(CCn2c(=N)c(C(=O)NCc3ccco3)cc3c(=O)n4ccccc4nc32)cc1
- IC50 [6]: 25.7 µM (inactive)
- AC50 (Cytochrome P450 1A2): 15.8 µM (inconclusive)

SMILES: O=C(O)[C@@H](c1ccccc1)[C@@H](C(=O)O)c1ccccc1
- AC50 (Cytochrome P450 2D6): inconclusive

SMILES: CO[C@@H]1COC(=O)CC=C[C@@H](C)[C@@H]2C=C[C@H](O)[C@@H](COC(=O)[C@H](C)NC(=O)CC=C[C@H]1C)O2
- AC50 (Cytochrome P450 2D6): inconclusive

SMILES: CN1CCc2c(sc3c2c(=O)n(-c2ccccc2)c2nncn32)C1
- AC50 (Cytochrome P450 2D6): inconclusive

SMILES: O=C1CC(N2CCN(c3ccccn3)CC2)C(=O)N1CC(c1ccccc1)c1ccccc1 (stereo not given)
- EC50 [2]: 5.85 µM (active)

SMILES: CC(=O)Nc1cc(-c2cccc(F)c2)cn2c(-c3ccc(F)c(Cl)c3)cnc12
- EC50 (Melanocortin receptor 4): > 89.2 µM (inactive)

SMILES: COc1ccc(-c2cc(NC(C)=O)c3ncc(-c4cccc(C(C)=O)c4)n3c2)cc1OC
- IC50 (H9c2): > 79 µM (inactive)
- EC50 (Melanocortin receptor 4): > 89.2 µM (inactive)

SMILES: Cc1cc(C)nc(Nc2nc(C(N)Cc3ccc(Cl)cc3)cs2)n1 (stereo not given)
- EC50 (Melanocortin receptor 4): > 89.2 µM (inactive)

SMILES: N=C(N)N/N=C/c1ccc2cccc(OCc3ccccc3)c2n1
- EC50 [7]: 0.685 µM (active)
- EC50 [8]: > 60 µM (not active)
- IC50 [9]: > 20 µM (inactive)
- IC50 (Beta-galactosidase): > 66.6 µM (inactive)

SMILES: Sc1nnc(-c2ccccc2)n1/N=C/c1ccc(-c2ccccc2Cl)o1
- AC50 [10]: 4 µM (active)
- EC50 [11]: > 260 µM (inactive)
- IC50 (Vero [3]): 2.17 µM (active)

SMILES: O=C(N/N=C/C=C/c1ccccc1)c1cc2c(ccc3ccccc32)o1
- IC50 [6]: 9.73 µM (active)
- AC50 (Cytochrome P450 1A2): 0.0447 µM (inconclusive)

SMILES: C[C@]12CC[C@H](O)C[C@H]1CC[C@@H]1[C@@H]2CC[C@]2(C)[C@@H](C3=CC(=O)OC3)CC[C@]12O [DIGITOXIGENIN]
- AC50 [10]: 0.467 µM (active)
- IC50 [12]: > 80 µM (inactive)
- IC50 (Vero [3]): < 0.05 µM (active)
- CC50 (Vero [4]): 1.45 µM (active)
- AC50 (Paired box protein Pax-8): 1.38 µM (active)

SMILES: C[C@]12CC[C@H]3C(=CCc4cc(O)ccc43)[C@@H]1CCC2=O [EQUILIN]
- CC50 [13]: 22.6 µM (active)
- IC50 [14]: 94.6 µM (active)
- AC50 (Cytochrome P450 3A4): 39.8 µM (inconclusive)
